The values that follow come from patent publication US4610982A, “Anti-inflammatory benzo- and thieno-1,2-thiazine-3-carboxamide 1,1-dioxide derivatives, compositions, and method of use therefor” (Pfizer Inc., priority 1985, dated 1986).

For one assay, the target named is lipoxygenase. The assay can be described thus: lipoxygenase inhibition. Format: biochemical.
The target of the next assay is cyclooxygenase (Homo sapiens, UniProt P23219). Nature of the assay: cyclooxygenase inhibition. Format: biochemical. From the text: (§1) The novel 2-acetoxybenzoyl and ring-substituted α-arylpropionyl oxicam esters of the present invention are all readily adapted to therapeutic use as anti-arthritic agents. […] A. Winter et al., Proc. Soc. Exp. Biol. Med., Vol. 111, p. […] Additionally, hydrolysis of this novel product in vivo simultaneously produces two different anti-inflammatory compounds of known value (viz., piroxicam and ketoprofen). The other oxicam ester compounds of this invention also afford similar results.

For assay [1], the system named is carrageenin-induced rat foot edema. Nature of the assay: carrageenin-induced rat foot edema test. In kind it is in vivo. The settings on record: 32 mg./kg. dose level, oral route; rat hind paw edema three hours after carrageenin injection.
Text: as §1
In this test, anti-inflammatory activity is determined as the percent inhibition of edema formation in the hind paw of male albino rats (weighing 150-190g.) in response to a sub-plantar injection of carrageenin. The carrageenin is injected as a 1% aqueous suspension (0.015 ml.) one hour after oral administration of the drug, which is normally given in the form of an aqueous solution. Edema formation is then assessed by measuring the volume of the injected paw initially as well as three hours after the carrageenin injection. The increase in volume three hours after carrageenin injection constitutes the individual response. […]

Each structure is given as a SMILES string.

cyclooxygenase, sequence (P23219 24-599): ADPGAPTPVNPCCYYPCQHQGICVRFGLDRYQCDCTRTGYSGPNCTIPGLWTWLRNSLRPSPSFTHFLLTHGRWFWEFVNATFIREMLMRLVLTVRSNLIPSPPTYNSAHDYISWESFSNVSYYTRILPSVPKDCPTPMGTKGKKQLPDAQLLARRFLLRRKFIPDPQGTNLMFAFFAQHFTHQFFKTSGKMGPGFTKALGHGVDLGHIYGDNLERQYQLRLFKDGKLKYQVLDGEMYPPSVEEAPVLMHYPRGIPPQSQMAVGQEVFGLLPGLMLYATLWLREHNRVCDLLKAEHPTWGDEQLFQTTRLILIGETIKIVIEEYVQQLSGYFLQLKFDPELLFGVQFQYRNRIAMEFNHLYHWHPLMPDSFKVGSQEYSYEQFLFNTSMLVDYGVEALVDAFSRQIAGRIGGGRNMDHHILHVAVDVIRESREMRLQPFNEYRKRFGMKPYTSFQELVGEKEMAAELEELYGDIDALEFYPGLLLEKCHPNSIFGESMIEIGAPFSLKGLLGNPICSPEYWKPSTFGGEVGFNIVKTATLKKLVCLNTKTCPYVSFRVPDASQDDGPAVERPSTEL

Regarding `CC(C(=O)OC1=C(C(=O)Nc2ccccn2)N(C)S(=O)(=O)c2ccccc21)c1cccc(C(=O)c2ccccc2)c1` (stereo not drawn) [Example 3, 4-[α-(3-benzoylphenyl)propionyloxy]-2-methyl-N-(2-pyridinyl)-2H-1,2-benzothiazine-3-carboxamide 1,1-dioxide], the half-inhibitory concentration (IC50) at lipoxygenase came to 0.02 µM; against cyclooxygenase it was 10 µM. For the same compound, the inhibition in swelling in assay [1] is 64%.
